Test results from patent publication US20100330128A1, “Method of improving immune function in mammals using lactobacillus strains with certain lipids” (priority 2005, published 2010).

Each substance was assayed on lymphocytes separated from spleen and thymus (assay: Lymphocyte proliferation assay (alamar blue)). Settings: 72 hours after addition of stimulant, FIG. 2.
Type: cell-based, BALB/c mice
Method: Lymphocytes were prepared from the spleen and thymus of BALB/c mice and were incubated with supernatants derived from growing L. reuteri ATCC 55730 in the presence and absence of glycerol (50 mM). L. reuteri ATCC 55730 was selected as it is a known good producer of 3-HPA and thus follows the selection criteria of the invention. Control incubations were performed with glycerol alone, media alone and known lymphocyte proliferation stimulants.
Separation of spleen and thymus lymphocytes. BALB/c mice were sacrificed by cervical dislocation, and their thymus was separated, immersed in Hanks' balanced salt solution (HBSS) and torn piecemeal to obtain a single cell. The single cell was centrifuged through double layers in Histopaque-1083 (Sigma) to obtain lymphocytes. These cells were washed two times with IMDM, and living cells were counted according to tryphan blue exclusion technique and used in the experiment at an adjusted final concentration of 1×10^7/mL.
Preparation of bacterial lysates. L. reuteri and Listeria monocytogenes lysates were prepared as mentioned in the phagocytic assay.
Preparation of L. reuteri supernatants. L. reuteri supernatant was also prepared as mentioned in the phagocytic assay.
Lymphocyte proliferation assay. Lymphocyte proliferation assay was carried out using lymphocytes suspended in IMDM+10% horse serum at 4×10^6 per well. The lymphocytes were treated with varying concentrations of L. reuteri, L. monocytogenes cell lysate and L. reuteri supernatant along with a reference stimulant, of which concentrations and conditions were as follows:
In the results reported in Table 2, MRS and glycerol sol. controls were used by adjusting pH in broths which were not incubated with L. reuteri, and the following symbols used: ConA: concanavalin A, PWM: pokeweed mitogen, PHA: phytohemaaglutinin, LPS: liphopholysaccharide from Salmonella enterica serovar Typhimurium.
Stimulants including ConA were added into a well containing lymphocytes in accordance with each condition, 3 hours before alamar blue was added at 10% concentration. 72 hours after the addition of each stimulant, the level of lymphocyte proliferation was determined by the value of OD570 nm-OD600 nm.
The result of lymphocyte proliferation was represented as Stimulation Index (SI), which is (ODtreatment-ODmedia control)/ODcell control value. In the case of L. reuteri supernatant treatment group, however, values of J and K treatment groups, but not IMDM+10% horse serum, were used as OD media control value.

| Substance | lymphocyte proliferation (Stimulation Index) |
| --- | --- |
| pokeweed mitogen [PWM] | marked stimulation of lymphocyte proliferation |
| concanavalin A [ConA] | marked stimulation of lymphocyte proliferation |
| phytohemaaglutinin [PHA] | marked stimulation of lymphocyte proliferation |
| liphopholysaccharide from Salmonella enterica serovar Typhimurium [LPS] | marked stimulation of lymphocyte proliferation |
